Columns and labels:
Assay in all cases: relative viability (nuclei count vs DMSO), 5 days (fraction); higher = more cells survive
[1] = compound: CCC1=CN=CN=C1N2CCN(CC2)CC3=NC4=C(N3)C=C(C=C4)C(F)(F)F + COc1cc2c(Oc3ccc(NC(=O)C4(C(=O)Nc5ccc(F)cc5)CC4)cc3F)ccnc2cc1OCCCN1CCOCC1 [Foretinib] (partner 0.25 µM)
How it was run: (§1)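 One day after seeding in 1536-well plates, lung cancer cell lines were dosed by pin tool. Dosing was either single-drug or a fixed anchor-drug dose plus five library-drug doses (not always all listed) in √10 steps. After 5 days, nuclei were stained in one fix-and-stain step and counted on 4× images, and relative viability is the nuclei count of treated wells over that of vehicle wells, given as the median of duplicate plates.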

[2] = compound: CCn1c(-c2nonc2N)nc2cnc(Oc3cccc(NC(=O)c4ccc(OCCN5CCOCC5)cc4)c3)cc21 + COc1cc2c(Oc3ccc(NC(=O)C4(C(=O)Nc5ccc(F)cc5)CC4)cc3F)ccnc2cc1OCCCN1CCOCC1 [Foretinib] (partner 0.25 µM)
How it was run: as §1

[3] = compound: CCn1c(-c2nonc2N)nc2cnc(Oc3cccc(NC(=O)c4ccc(OCCN5CCOCC5)cc4)c3)cc21 + CCNC(=O)c1noc(-c2cc(C(C)C)c(O)cc2O)c1-c1ccc(CN2CCOCC2)cc1 [Luminespib] (partner 0.01 µM)
How it was run: as §1

Mirin + AZD7762 = compound: N=C1NC(=O)/C(=C/c2ccc(O)cc2)S1 [Mirin] + NC(=O)Nc1cc(-c2cccc(F)c2)sc1C(=O)N[C@H]1CCCNC1 [AZD7762] (partner 0.2 µM)
How it was run: as §1

Cell Line | relative viability ([1]; first compound 0.04 µM) | relative viability ([1]; first compound 0.1265 µM) | relative viability ([1]; first compound 0.4 µM) | relative viability ([1]; first compound 1.265 µM) | relative viability ([1]; first compound 4 µM) | relative viability ([2]; first compound 0.04 µM) | relative viability ([2]; first compound 0.1265 µM) | relative viability ([2]; first compound 0.4 µM) | relative viability ([2]; first compound 1.265 µM) | relative viability ([2]; first compound 4 µM) | relative viability ([3]; first compound 0.04 µM) | relative viability ([3]; first compound 0.1265 µM) | relative viability ([3]; first compound 0.4 µM) | relative viability ([3]; first compound 1.265 µM) | relative viability ([3]; first compound 4 µM) | relative viability (Mirin + AZD7762; first compound 0.25 µM) | relative viability (Mirin + AZD7762; first compound 0.7906 µM) | relative viability (Mirin + AZD7762; first compound 2.5 µM) | relative viability (Mirin + AZD7762; first compound 7.906 µM) | relative viability (Mirin + AZD7762; first compound 25 µM)
SW 1573 | 0.732 | 0.863 | 0.912 | 0.815 | 0.8 | 1.1 | 0.926 | 0.527 | 0.539 | 0.354 | 0.251 | 0.207 | 0.123 | 0.196 | 0.137 | – | – | – | – | –
LOU-NH91 | 0.863 | 0.984 | 0.909 | 0.966 | 0.92 | 0.92 | 0.83 | 0.697 | 0.47 | 0.525 | 0.367 | 0.328 | 0.331 | 0.271 | 0.248 | 0.799 | 0.782 | 0.754 | 0.713 | 0.854
LXF-289 | 1.03 | 0.949 | 0.971 | 0.937 | 0.934 | 1.06 | 1.02 | 0.982 | 0.936 | 0.882 | 0.791 | 0.638 | 0.798 | 0.701 | 0.654 | 1.07 | 1.3 | 1.16 | 1.36 | 1.47
NCI-H1299 | 1.1 | 1.02 | 1.12 | 1.11 | 1.08 | 1.03 | 1.06 | 0.969 | 0.858 | 0.789 | – | – | – | – | – | – | – | – | – | –
HARA | 0.85 | 0.952 | 0.836 | – | 0.828 | 1.13 | 1.09 | 0.906 | 0.939 | 0.883 | 0.839 | 1.18 | 0.682 | 0.801 | 0.678 | 0.257 | – | 0.47 | 0.423 | 0.353
LU99A | 0.744 | 0.751 | 0.771 | 0.804 | 0.87 | 0.872 | 0.886 | 0.853 | 0.493 | 0.476 | 0.264 | 0.221 | 0.286 | 0.26 | 0.249 | 0.351 | 0.349 | 0.355 | 0.294 | 0.28
201T | 1.21 | 1.07 | 1.09 | 1.02 | 1.07 | 1.28 | 1.11 | 1.05 | 0.555 | 0.598 | 1.1 | 1.02 | 1.05 | 1.06 | 1.07 | 0.581 | 0.754 | 0.673 | 0.441 | 0.552
HCC-827 | 0.962 | 0.945 | 1.02 | – | 0.826 | 1.11 | 1.05 | 0.996 | 0.877 | 0.751 | 1.09 | 0.592 | 0.792 | 0.591 | 0.588 | 0.209 | 0.184 | 0.242 | 0.157 | 0.225
NCI-H1666 | 0.88 | 0.923 | 0.97 | 0.882 | 0.889 | 1.1 | 1.11 | 1.2 | 0.767 | 0.442 | 1.2 | 1.24 | 1.27 | 0.907 | 0.478 | 0.908 | 1.06 | 0.909 | 0.757 | 0.917

From the supplement of paper PMC10307832
